Patent US20260034130A1 (priority 2022, published 2026)

Tests used:
[1] = tested on: patients with acute ischemic stroke or high-risk TIA; assay: AXIOMATIC-SSP clinical (symptomatic) ischemic stroke and undetermined stroke events, all randomized participants; assay type: in vivo, human
Method: The primary efficacy endpoint was the composite of incident ischemic stroke during the treatment period or new covert brain infarction detected by the comparison of 90-day and baseline MRIs. All images were read independently by 2 blinded neuroradiologists, and disagreements were resolved by consensus. […] Clinically overt strokes were determined by site investigators following standardized definitions. Briefly, to qualify as an outcome event, a clinical diagnosis of stroke required a sustained increase in the NIHSS score of ≥3 points that was not explained by other factors, such as infection, or was confirmed by imaging as a new infarct. Covert brain infarction is defined as small ischemic cerebral lesions that are detected on Day 90 MRI in the absence of a symptomatic ischemic stroke event. […]

[2] = tested on: patients with acute ischemic stroke or high-risk TIA; assay: AXIOMATIC-SSP vascular territory of incident infarcts at Day 90 compared with baseline; assay type: in vivo, human
From the text: At baseline, recent ischemic lesions were detected and quantified using the DWI sequence. Incident infarcts (defined as new imaging lesions compared to the baseline MRI which may be associated with a symptomatic ischemic stroke or be covert in nature) were detected at Day 90 on the FLAIR sequence and categorized as DWI positive or DWI negative based on whether they could also be detected on the DWI sequence. DWI positive lesions at Day 90 were likely associated with infarctions occurring late during the follow-up period (approximately from Day 30 to Day 90) while DWI negative lesions were more likely related to earlier infarctions (approximately occurring by Day 30). The vascular territory of incident infarcts was also assessed at Day 90.

[3] = tested on: patients with acute ischemic stroke or high-risk TIA; assay: AXIOMATIC-SSP mRS at the time of first recurrent stroke; assay type: in vivo, human; conditions: for mRS Change from Baseline Mean / mRS Change from Baseline Median / mRS Value Mean / mRS Value Median: first recurrent stroke
From the text: National Institutes of Health Stroke Scale (NIHSS), Modified Rankin Scale (mRS), Montreal Cognitive Assessment (MoCA), and Digit Symbol Substitution Test (subtest of WAIS-IV) were collected at baseline (at randomization for NIHSS), on Days 21 and 90, and at the time of a new stroke event. MoCA and DSST (subset of WAIS-IV) were read by a third-party central laboratory blinded to treatment.
Descriptive statistics and corresponding change from baseline (where applicable) assessed by the National Institutes of Health Stroke Score (NIHSS), modified Rankin Scale (mRS), Montreal Cognitive Assessment (MoCA), and Digit Symbol Substitution Test (subtest of WAIS-IV) were summarized by treatment group.

[4] = tested on: intrinsic coagulation pathway; assay: AXIOMATIC-SSP pharmacodynamics: activated partial thromboplastin time (aPTT) and percent change from baseline; assay type: in vivo, human; conditions: for aPTT Percent Change from Baseline Mean / aPTT Percent Change from Baseline Median / aPTT Value Mean / aPTT Value Median: 50 mg BID
[5] = tested on: patients undergoing TKR (total knee replacement); conditions: 25 mg twice daily; cited from earlier work

C[C@@H]1CCC[C@H](n2cnc(-c3cc(Cl)ccc3-n3cc(Cl)nn3)cc2=O)c2cc(ccn2)-c2c(cnn2C(F)F)NC1=O [milvexian, (5R,9S)-9-(4-(5-chloro-2-(4-chloro-1H-1,2,3-triazol-1-yl)phenyl)-6-oxopyrimidin-1(6H)-yl)-21-(difluoromethyl)-5-methyl-21H-3-aza-1(4,2)-pyridina-2(5,4)-pyrazolacyclonaphan-4-one]
Subjects With Hemorragic Stroke n ([1]; 25 mg BID, N = 318): 0 | Subjects With Hemorragic Stroke, Incidence Rate (n/N %) ([1]; 25 mg BID, N = 318): (0) % | Subjects With Undetermined Stroke, Incidence Rate (n/N %) ([1]; 25 mg BID, N = 318): (0) % | Symptomatic Stroke Events: Subjects With Event, Incidence Rate (n/N %) ([1]; 25 mg BID, N = 318): (3.8) % | Subjects With Hemorragic Stroke n ([1]; 25 mg QD, N = 328): 0 | Subjects With Hemorragic Stroke, Incidence Rate (n/N %) ([1]; 25 mg QD, N = 328): (0) % | Subjects With Ischemic Stroke n ([1]; 25 mg QD, N = 328): 15 | Subjects With Undetermined Stroke, Incidence Rate (n/N %) ([1]; 25 mg QD, N = 328): (0) % | Symptomatic Stroke Events: Subjects With Event n ([1]; 25 mg QD, N = 328): 15 | Symptomatic Stroke Events: Subjects With Event, Incidence Rate (n/N %) ([1]; 25 mg QD, N = 328): (4.6) % | HR for preventing clinical ischemic strokes vs placebo ([1]; 25 mg twice daily, 95% CI 0.36-1.30): 0.69 | Subjects With Hemorragic Stroke n ([1]; 50 mg BID, N = 328): 0 | Subjects With Hemorragic Stroke, Incidence Rate (n/N %) ([1]; 50 mg BID, N = 328): (0) % | Subjects With Undetermined Stroke, Incidence Rate (n/N %) ([1]; 50 mg BID, N = 328): (0) % | Symptomatic Stroke Events: Subjects With Event, Incidence Rate (n/N %) ([1]; 50 mg BID, N = 328): (4.0) % | Subjects With Hemorragic Stroke n ([1]; 100 mg BID, N = 310): 0 | Subjects With Hemorragic Stroke, Incidence Rate (n/N %) ([1]; 100 mg BID, N = 310): (0) % | Subjects With Undetermined Stroke, Incidence Rate (n/N %) ([1]; 100 mg BID, N = 310): (0) % | Symptomatic Stroke Events: Subjects With Event, Incidence Rate (n/N %) ([1]; 100 mg BID, N = 310): (3.5) % | Subjects With Hemorragic Stroke n ([1]; 200 mg BID, N = 351): 0 | Subjects With Hemorragic Stroke, Incidence Rate (n/N %) ([1]; 200 mg BID, N = 351): (0) % | Subjects With Undetermined Stroke, Incidence Rate (n/N %) ([1]; 200 mg BID, N = 351): (0) % | Symptomatic Stroke Events: Subjects With Event, Incidence Rate (n/N %) ([1]; 200 mg BID, N = 351): (7.7) % | time point for apparent onset of the clinical benefit vs placebo (Kaplan-Meier, time to ischemic stroke) ([1]; pooled doses of milvexian): about 10 days | Incident infarcts at Day 90 by vascular territory: subjects (percent, in parentheses) ([2]; ACA, 25 BID, N = 285): (1.1) | Incident infarcts at Day 90 by vascular territory: subjects (percent, in parentheses) ([2]; ACA, 25 QD, N = 305): (0.3) | Incident infarcts at Day 90 by vascular territory: subjects (percent, in parentheses) ([2]; ACA, 50 BID, N = 306): (1.3) | Incident infarcts at Day 90 by vascular territory: subjects (percent, in parentheses) ([2]; AChA, 50 BID, N = 306): (0.3) | Incident infarcts at Day 90 by vascular territory: subjects (percent, in parentheses) ([2]; AChA, 100 BID, N = 275): (0.4) | Incident infarcts at Day 90 by vascular territory: subjects (percent, in parentheses) ([2]; AChA, 200 BID, N = 311): (0.4) | Incident infarcts at Day 90 by vascular territory: subjects (percent, in parentheses) ([2]; BASILAR - MIDBRAIN, 25 QD, N = 305): (0.3) | Incident infarcts at Day 90 by vascular territory: subjects (percent, in parentheses) ([2]; BASILAR - PONS, 50 BID, N = 306): (0.3) | Incident infarcts at Day 90 by vascular territory: subjects (percent, in parentheses) ([2]; BASILAR - THALAMUS, 25 BID, N = 285): (0.7) | Incident infarcts at Day 90 by vascular territory: subjects (percent, in parentheses) ([2]; BASILAR - THALAMUS, 25 QD, N = 305): (0.3) | Incident infarcts at Day 90 by vascular territory: subjects (percent, in parentheses) ([2]; BASILAR - THALAMUS, 50 BID, N = 306): (0.3) | Incident infarcts at Day 90 by vascular territory: subjects (percent, in parentheses) ([2]; LENTICULO-STRIATE ARTERIES, 25 BID, N = 285): (2.1) | Incident infarcts at Day 90 by vascular territory: subjects (percent, in parentheses) ([2]; LENTICULO-STRIATE ARTERIES, 25 QD, N = 305): (2.0) | Incident infarcts at Day 90 by vascular territory: subjects (percent, in parentheses) ([2]; LENTICULO-STRIATE ARTERIES, 50 BID, N = 306): (1.3) | Incident infarcts at Day 90 by vascular territory: subjects (percent, in parentheses) ([2]; LENTICULO-STRIATE ARTERIES, 100 BID, N = 275): (1.5) | Incident infarcts at Day 90 by vascular territory: subjects (percent, in parentheses) ([2]; LENTICULO-STRIATE ARTERIES, 200 BID, N = 311): (1.5) | Incident infarcts at Day 90 by vascular territory: subjects (percent, in parentheses) ([2]; MCA, 25 BID, N = 285): (4.9) | Incident infarcts at Day 90 by vascular territory: subjects (percent, in parentheses) ([2]; MCA, 25 QD, N = 305): (4.9) | Incident infarcts at Day 90 by vascular territory: subjects (percent, in parentheses) ([2]; MCA, 50 BID, N = 306): (4.2) | Incident infarcts at Day 90 by vascular territory: subjects (percent, in parentheses) ([2]; MCA, 100 BID, N = 275): (4.7) | Incident infarcts at Day 90 by vascular territory: subjects (percent, in parentheses) ([2]; MCA, 200 BID, N = 311): (4.7) | Incident infarcts at Day 90 by vascular territory: subjects (percent, in parentheses) ([2]; PCA, 25 BID, N = 285): (1.4) | Incident infarcts at Day 90 by vascular territory: subjects (percent, in parentheses) ([2]; PCA, 25 QD, N = 305): (2.6) | Incident infarcts at Day 90 by vascular territory: subjects (percent, in parentheses) ([2]; PCA, 50 BID, N = 306): (2.0) | Incident infarcts at Day 90 by vascular territory: subjects (percent, in parentheses) ([2]; PCA, 100 BID, N = 275): (2.5) | Incident infarcts at Day 90 by vascular territory: subjects (percent, in parentheses) ([2]; PCA, 200 BID, N = 311): (2.5) | Incident infarcts at Day 90 by vascular territory: subjects (percent, in parentheses) ([2]; PICA, 25 BID, N = 285): (1.1) | Incident infarcts at Day 90 by vascular territory: subjects (percent, in parentheses) ([2]; PICA, 25 QD, N = 305): (0.3) | Incident infarcts at Day 90 by vascular territory: subjects (percent, in parentheses) ([2]; PICA, 100 BID, N = 275): (1.1) | Incident infarcts at Day 90 by vascular territory: subjects (percent, in parentheses) ([2]; PICA, 200 BID, N = 311): (1.1) | Incident infarcts at Day 90 by vascular territory: subjects (percent, in parentheses) ([2]; SCA, 25 BID, N = 285): (0.7) | Incident infarcts at Day 90 by vascular territory: subjects (percent, in parentheses) ([2]; SCA, 25 QD, N = 305): (0.7) | Incident infarcts at Day 90 by vascular territory: subjects (percent, in parentheses) ([2]; SCA, 100 BID, N = 275): (0.4) | Incident infarcts at Day 90 by vascular territory: subjects (percent, in parentheses) ([2]; SCA, 200 BID, N = 311): (0.4) | mRS Change from Baseline Mean ([3]; 25 BID, N 10): 2.1 | mRS Change from Baseline Median ([3]; 25 BID, N 10): 2.0 | mRS Value Mean ([3]; 25 BID, N 10): 2.6 | mRS Value Median ([3]; 25 BID, N 10): 3.0 | mRS Change from Baseline Mean ([3]; 25 QD, N 13): 1.9 | mRS Change from Baseline Median ([3]; 25 QD, N 13): 2.0 | mRS Value Mean ([3]; 25 QD, N 13): 2.7 | mRS Value Median ([3]; 25 QD, N 13): 3.0 | mRS Change from Baseline Mean ([3]; 50 BID, N 11): 1.7 | mRS Change from Baseline Median ([3]; 50 BID, N 11): 1.0 | mRS Value Mean ([3]; 50 BID, N 11): 2.3 | mRS Value Median ([3]; 50 BID, N 11): 2.0 | mRS Change from Baseline Mean ([3]; 100 BID, N 8): 2.4 | mRS Change from Baseline Median ([3]; 100 BID, N 8): 2.5 | mRS Value Mean ([3]; 100 BID, N 8): 2.9 | mRS Value Median ([3]; 100 BID, N 8): 3.0 | mRS Change from Baseline Mean ([3]; 200 BID, N 19): 1.4 | mRS Change from Baseline Median ([3]; 200 BID, N 19): 1.0 | mRS Value Mean ([3]; 200 BID, N 19): 1.8 | mRS Value Median ([3]; 200 BID, N 19): 1.0 | mRS score at the time of a new stroke event compared with placebo ([3]; milvexian arms): numerically lower | aPTT Percent Change from Baseline Mean ([4]; DAY 1 24 h, N 269): 85.17% | aPTT Percent Change from Baseline Median ([4]; DAY 1 24 h, N 269): 81.89% | aPTT Value Mean ([4]; DAY 1 24 h, N 269): 49.38 s | aPTT Value Median ([4]; DAY 1 24 h, N 269): 48.60 s | aPTT Percent Change from Baseline Mean ([4]; DAY 21 anytime, N 268): 115.62% | aPTT Percent Change from Baseline Median ([4]; DAY 21 anytime, N 268): 112.6% | aPTT Value Mean ([4]; DAY 21 anytime, N 268): 57.27 s | aPTT Value Median ([4]; DAY 21 anytime, N 268): 55.10 s | aPTT Percent Change from Baseline Mean ([4]; DAY 90 anytime, N 241): 97.32% | aPTT Percent Change from Baseline Median ([4]; DAY 90 anytime, N 241): 101.18% | aPTT Value Mean ([4]; DAY 90 anytime, N 241): 52.00 s | aPTT Value Median ([4]; DAY 90 anytime, N 241): 52.60 s | change in aPTT from baseline ([4]; milvexian treated groups): Dose-dependent increases | efficacy versus enoxaparin in AXIOMATIC-TKR [5]: comparable efficacy to enoxaparin
